From patent US20250255304A1, “HIGHLY TRA[…] CONTROLLING COMPOSITION” (ZM Crop Protection Corporation, priority 2022, published 2025)

Assays:
Type in all cases: in vivo
[1] = tested on: Coptotermes formosanus Shiraki; test: Test Example 1: effect of agent on gypsum treated with test agent solution; conditions: dicloromezotiaz 0.023%, imidacloprid 0.1%, fipronil 0.03% test agent solution on gypsum
Experimental: A test agent solution containing 0.023 parts of dicloromezotiaz was prepared by adding 99.875 parts of water to 0.125 parts of the aqueous suspension composition shown in Formulation Example 1.
In a comparative example, an aqueous suspension composition prepared by adding an agent solution, wherein 99 parts of water was added to 1 part of a flowable containing 10.0 parts of imidacloprid and which contained 0.1 parts of imidacloprid and a drug solution, wherein 299 parts of water was added to 1 part of a flowable containing 9.1 parts of fipronil and which contained 0.03 parts of fipronil, uniformly mixing same was used as a test agent solution of a comparative example.
As the imidacloprid formulation and the fipronil formulation, commercially available termite controlling agents were used and diluted solutions at practical agent concentrations thereof were used as test agent solutions.
Gypsum was cured and spread in a glass petri dish having a diameter of 90 mm, 15 ml of each of the test agent solution of the example and the test agent solution of the comparative example was uniformly dropped on the entire surface of the gypsum. Thereafter, ten workers of Coptotermes formosanus Shiraki were released into the petri dish and the petri dish was covered and left to stand in a thermostatic chamber (25° C./relative humidity 60%).
The number of abnormal termites and the number of dead termites among the released termites (Coptotermes formosanus Shiraki) were observed every one hour from immediately after the release of the termites (Coptotermes formosanus Shiraki) until ten hours passed and the total number of the abnormal termite rate and the dead termite rate was calculated as the abnormal or dead termite rate (%) according to [Expression 1] below and the rates of expression of the effects of the respective agents were compared. Each test agent was prepared in one petri dish as one plot and the test was carried out in two replicates.

[2] = tested on: Coptotermes formosanus Shiraki; test: Test Example 2: primary transmission treatment effect; conditions: Table 3, dicloromezotiaz 0.023%, fipronil 0.03%, imidacloprid 0.10%, chlorantraniliprole 0.05% solution in soil
Experimental: (§1) A test agent solution containing 0.023 parts of dicloromezotiaz was prepared by adding 99.875 parts of water to 0.125 parts of the aqueous suspension composition shown in Formulation Example 1. As comparative examples, four types of commercially available neonicotinoid termite controlling agents and four types of slow-acting termite controlling agents shown in Table 2 were diluted with water at practical concentrations to prepare test agent solutions. The “agent concentration (%)” indicates the concentration of the active ingredient contained in each of the composition of the present invention and the termite controlling agents and the “test agent solution concentration (%)” indicates the concentration of the active ingredient in each of the prepared test agent solutions.
(§2) After 1.2 g of each of the test agent solutions of the example and the comparative examples diluted to a predetermined concentration and prepared was added to 4.8 g of soil, 6 g of the mixed soil was spread in a glass petri dish having a diameter of 50 mm and ten workers of Coptotermes formosanus Shiraki were released into the petri dish and exposed to the agent solution for 4 hours.

[3] = tested on: Coptotermes formosanus Shiraki; test: Test Example 3: extirpation test with dust formulation using simulated termite trails; conditions: active ingredient concentration 0.5%
[4] = tested on: Coptotermes formosanus Shiraki; test: Test Example 2: secondary transmission treatment effect; conditions: Table 5, dicloromezotiaz 0.023%, fipronil 0.03%, imidacloprid 0.10%, chlorantraniliprole 0.05% solution in soil
Experimental: as §1, §2

N#Cc1nn(-c2c(Cl)cc(C(F)(F)F)cc2Cl)c(N)c1[S+]([O-])C(F)(F)F (stereo not shown) [Fipronil]
Abnormal or dead termite rate (%) ([1]; time elapsed 1 h): 18%
Abnormal or dead termite rate (%) ([1]; time elapsed 2 h): 36%
Abnormal or dead termite rate (%) ([1]; time elapsed 3 h): 52%
Abnormal or dead termite rate (%) ([1]; time elapsed 4 h): 100%
Abnormal or dead termite rate (%) ([1]; time elapsed 5 h): 100%
Abnormal or dead termite rate (%) ([1]; time elapsed 6 h): 100%
Abnormal or dead termite rate (%) ([1]; time elapsed 7 h): 100%
Abnormal or dead termite rate (%) ([1]; time elapsed 8 h): 100%
Abnormal or dead termite rate (%) ([1]; time elapsed 9 h): 100%
Abnormal or dead termite rate (%) ([1]; time elapsed 10 h): 100%
Abnormal or dead termite rate (%) ([2]; after 1 day): 82%
Abnormal or dead termite rate (%) ([2]; after 3 days): 95%
Abnormal or dead termite rate (%) ([2]; after 7 days): 100%
Abnormal or dead termite rate (%) ([2]; after 14 days): 100%
Abnormal or dead termite rate (%) ([2]; after 21 days): 100%
Abnormal or dead termite rate (%) ([3]; 1 h): 0%
Abnormal or dead termite rate (%) ([3]; 2 h): 5%
Abnormal or dead termite rate (%) ([3]; 3 h): 50%
Abnormal or dead termite rate (%) ([3]; 4 h): 95%
Abnormal or dead termite rate (%) ([3]; 5 h): 95%
Abnormal or dead termite rate (%) ([3]; 6 h): 100%
Abnormal or dead termite rate (%) ([3]; 7 h): 100%
Abnormal or dead termite rate (%) ([3]; 1 day): 100%
Abnormal or dead termite rate (%) ([3]; 2 days): 100%
Abnormal or dead termite rate (%) ([3]; 3 days): 100%
Abnormal or dead termite rate (%) ([3]; 7 days): 100%
Abnormal or dead termite rate (%) ([4]; after 1 day): 0%
Abnormal or dead termite rate (%) ([4]; after 3 days): 0%
Abnormal or dead termite rate (%) ([4]; after 7 days): 19%
Abnormal or dead termite rate (%) ([4]; after 14 days): 30%
Abnormal or dead termite rate (%) ([4]; after 21 days): 31%
